Drawing on the supplement of paper PMC10307832, this text covers relative viability for seven cell lines.

Holding throughout (test): relative viability (nuclei count vs DMSO), 5 days (fraction); higher = more cells survive
Compound in assay [1]: CC1=CC(=CC=C1)NC2=NC(=CS2)C3=CC=NC=C3 + COc1cc2c(Oc3ccc(NC(=O)C4(C(=O)Nc5ccc(F)cc5)CC4)cc3F)ccnc2cc1OCCCN1CCOCC1 [Foretinib] (partner 0.25 µM)
The gist of the method: (§1)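 One day after seeding in 1536-well plates, lung cancer cell lines were dosed by pin tool. Dosing was either single-drug or a fixed anchor-drug dose plus five library-drug doses (not always all listed) in √10 steps. After 5 days, nuclei were stained in one fix-and-stain step and counted on 4× images, and relative viability is the nuclei count of treated wells over that of vehicle wells, given as the median of duplicate plates.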

Compound in the assay “Masitinib + Tozasertib”: Cc1ccc(NC(=O)c2ccc(CN3CCN(C)CC3)cc2)cc1Nc1nc(-c2cccnc2)cs1 [Masitinib] + Cc1cc(Nc2cc(N3CCN(C)CC3)nc(Sc3ccc(NC(=O)C4CC4)cc3)n2)n[nH]1 [Tozasertib] (partner 0.1 µM)
The gist of the method: as §1

Compound in the assay “Masitinib + Olaparib”: Cc1ccc(NC(=O)c2ccc(CN3CCN(C)CC3)cc2)cc1Nc1nc(-c2cccnc2)cs1 [Masitinib] + O=C(c1cc(Cc2n[nH]c(=O)c3ccccc23)ccc1F)N1CCN(C(=O)C2CC2)CC1 [Olaparib] (partner 8 µM)
The gist of the method: as §1

Compound in assay [2]: CC1=CC(=CC=C1)NC2=NC(=CS2)C3=CC=NC=C3 + CS(=O)(=O)N1CCN(Cc2cc3nc(-c4cccc5[nH]ncc45)nc(N4CCOCC4)c3s2)CC1 [Pictilisib] (partner 1 µM)
The gist of the method: as §1

For the cell line NCI-H2342, the relative viability was determined as 0.889 in assay [1] (first compound 0.08 µM); 1.03 in assay [1] (first compound 0.253 µM); 0.949 in assay [1] (first compound 0.8 µM); 1.08 in assay [1] (first compound 2.53 µM); 1.14 in assay [1] (first compound 8 µM); 0.464 in the assay with Masitinib + Tozasertib (first compound 0.01 µM). Further, the relative viability in the assay with Masitinib + Tozasertib (first compound 0.03162 µM) stood at 0.51; with Masitinib + Tozasertib (first compound 0.1 µM), 0.523; in the assay with Masitinib + Tozasertib (first compound 0.3162 µM), 0.514; in the assay with Masitinib + Tozasertib (first compound 1 µM), 0.469; with Masitinib + Olaparib (first compound 0.01 µM), 0.447; with Masitinib + Olaparib (first compound 0.03162 µM) it was 0.485. For the same cell line, the relative viability in the assay with Masitinib + Olaparib (first compound 0.1 µM) came out at 0.425; in the assay with Masitinib + Olaparib (first compound 0.3162 µM), 0.44; in the assay with Masitinib + Olaparib (first compound 1 µM), 0.36.
Consider NCI-H1793, for which the relative viability in assay [1] (first compound 0.08 µM) worked out at 0.65; in assay [1] (first compound 0.253 µM) it was 0.663; in assay [1] (first compound 0.8 µM), 0.573; in assay [1] (first compound 2.53 µM), 0.64; in assay [1] (first compound 8 µM), 0.629; with Masitinib + Tozasertib (first compound 0.01 µM), 0.337. Further, the relative viability was determined as 0.309 with Masitinib + Tozasertib (first compound 0.03162 µM); 0.33 with Masitinib + Tozasertib (first compound 0.1 µM); 0.238 with Masitinib + Tozasertib (first compound 0.3162 µM); 0.256 with Masitinib + Tozasertib (first compound 1 µM); 0.893 in the assay with Masitinib + Olaparib (first compound 0.01 µM); 0.777 with Masitinib + Olaparib (first compound 0.03162 µM). For the same cell line, the relative viability is 1.04 in the assay with Masitinib + Olaparib (first compound 0.1 µM); 1.08 in the assay with Masitinib + Olaparib (first compound 0.3162 µM); 0.768 with Masitinib + Olaparib (first compound 1 µM); 0.326 in assay [2] (first compound 0.253 µM); 0.357 in assay [2] (first compound 0.8 µM); 0.22 in assay [2] (first compound 2.53 µM). Further, the relative viability in assay [2] (first compound 8 µM) was determined as 0.264.
LU99A: the relative viability is 0.807 in assay [1] (first compound 0.08 µM); 0.805 in assay [1] (first compound 0.253 µM); 0.803 in assay [1] (first compound 0.8 µM); 0.915 in assay [1] (first compound 2.53 µM); 0.941 in assay [1] (first compound 8 µM); 0.289 with Masitinib + Tozasertib (first compound 0.01 µM). The relative viability with Masitinib + Tozasertib (first compound 0.03162 µM) is 0.221; with Masitinib + Tozasertib (first compound 0.1 µM), 0.282; with Masitinib + Tozasertib (first compound 0.3162 µM) it was 0.269; with Masitinib + Tozasertib (first compound 1 µM), 0.257; with Masitinib + Olaparib (first compound 0.01 µM) it was 0.27; with Masitinib + Olaparib (first compound 0.03162 µM), 0.276. Moreover, the relative viability was found to be 0.246 with Masitinib + Olaparib (first compound 0.1 µM); 0.255 with Masitinib + Olaparib (first compound 0.3162 µM); 0.269 with Masitinib + Olaparib (first compound 1 µM); 0.309 in assay [2] (first compound 0.253 µM); 0.306 in assay [2] (first compound 0.8 µM); 0.368 in assay [2] (first compound 2.53 µM). Moreover, in assay [2] (first compound 8 µM), the relative viability was found to be 0.326.
HCC-366: the relative viability in assay [1] (first compound 0.08 µM) stood at 0.859; in assay [1] (first compound 0.253 µM), 0.89; in assay [1] (first compound 0.8 µM), 0.883; in assay [1] (first compound 2.53 µM), 0.885; in assay [1] (first compound 8 µM), 0.9; with Masitinib + Tozasertib (first compound 0.03162 µM), 0.0721. The relative viability with Masitinib + Tozasertib (first compound 0.3162 µM) is 0.0725; with Masitinib + Tozasertib (first compound 1 µM), 0.0736; in the assay with Masitinib + Olaparib (first compound 0.03162 µM) it was 0.384; in the assay with Masitinib + Olaparib (first compound 0.1 µM), 0.357; with Masitinib + Olaparib (first compound 0.3162 µM), 0.343; in the assay with Masitinib + Olaparib (first compound 1 µM), 0.396. Besides, the relative viability came out at 0.146 in assay [2] (first compound 0.08 µM); 0.11 in assay [2] (first compound 0.253 µM); 0.132 in assay [2] (first compound 0.8 µM); 0.157 in assay [2] (first compound 2.53 µM); 0.121 in assay [2] (first compound 8 µM).
With 201T, the relative viability came out at 0.835 in assay [1] (first compound 0.08 µM); 0.939 in assay [1] (first compound 0.8 µM); 0.759 in assay [1] (first compound 2.53 µM); 0.871 in assay [1] (first compound 8 µM); 0.711 with Masitinib + Tozasertib (first compound 0.01 µM); 1.01 in the assay with Masitinib + Tozasertib (first compound 0.03162 µM). Besides, the relative viability in the assay with Masitinib + Tozasertib (first compound 0.1 µM) came to 0.85; with Masitinib + Tozasertib (first compound 0.3162 µM), 0.789; with Masitinib + Tozasertib (first compound 1 µM) it was 0.926; with Masitinib + Olaparib (first compound 0.01 µM), 0.702; in the assay with Masitinib + Olaparib (first compound 0.03162 µM) it was 0.901; with Masitinib + Olaparib (first compound 0.1 µM), 0.765. The relative viability with Masitinib + Olaparib (first compound 0.3162 µM) stood at 0.721; with Masitinib + Olaparib (first compound 1 µM), 0.806; in assay [2] (first compound 0.08 µM), 0.547; in assay [2] (first compound 0.253 µM), 0.537; in assay [2] (first compound 0.8 µM), 0.598; in assay [2] (first compound 2.53 µM), 0.565. In addition, the relative viability in assay [2] (first compound 8 µM) turned out to be 0.602.
Consider HCC-827, for which the relative viability in assay [1] (first compound 0.08 µM) turned out to be 1.02; in assay [1] (first compound 0.253 µM), 1; in assay [1] (first compound 0.8 µM), 0.997; in assay [1] (first compound 2.53 µM), 1.02; in assay [1] (first compound 8 µM), 0.958; with Masitinib + Tozasertib (first compound 0.01 µM) it was 0.378. For the same cell line, the relative viability with Masitinib + Tozasertib (first compound 0.03162 µM) came out at 0.444; with Masitinib + Tozasertib (first compound 0.1 µM) it was 0.444; in the assay with Masitinib + Tozasertib (first compound 0.3162 µM) it was 0.457; in the assay with Masitinib + Tozasertib (first compound 1 µM), 0.514; in the assay with Masitinib + Olaparib (first compound 0.01 µM), 0.564; with Masitinib + Olaparib (first compound 0.03162 µM) it was 0.642. The relative viability in the assay with Masitinib + Olaparib (first compound 0.1 µM) was determined as 0.655; with Masitinib + Olaparib (first compound 0.3162 µM) it was 0.624; with Masitinib + Olaparib (first compound 1 µM) it was 0.695; in assay [2] (first compound 0.08 µM), 0.72; in assay [2] (first compound 0.253 µM), 0.875; in assay [2] (first compound 0.8 µM) it was 1.12. Moreover, the relative viability in assay [2] (first compound 2.53 µM) was 0.895; in assay [2] (first compound 8 µM), 0.812.
Take NCI-H650: the relative viability was determined as 0.955 in assay [1] (first compound 0.08 µM); 0.98 in assay [1] (first compound 0.253 µM); 1.08 in assay [1] (first compound 0.8 µM); 1.02 in assay [1] (first compound 2.53 µM); 1.02 in assay [1] (first compound 8 µM); 0.642 with Masitinib + Tozasertib (first compound 0.01 µM). Besides, the relative viability in the assay with Masitinib + Tozasertib (first compound 0.03162 µM) was determined as 0.732; with Masitinib + Tozasertib (first compound 0.1 µM), 0.717; with Masitinib + Tozasertib (first compound 0.3162 µM) it was 0.745; with Masitinib + Tozasertib (first compound 1 µM), 0.665; with Masitinib + Olaparib (first compound 0.01 µM) it was 0.41; with Masitinib + Olaparib (first compound 0.03162 µM), 0.386. Besides, the relative viability is 0.422 with Masitinib + Olaparib (first compound 0.1 µM); 0.394 with Masitinib + Olaparib (first compound 0.3162 µM); 0.324 in the assay with Masitinib + Olaparib (first compound 1 µM); 0.771 in assay [2] (first compound 0.08 µM); 0.863 in assay [2] (first compound 0.253 µM); 0.893 in assay [2] (first compound 0.8 µM). In assay [2] (first compound 8 µM), the relative viability was determined as 0.822.
